“Also recorded” adds a separate entry of the source.
Columns and labels:
[1] = tested on: dermal mast cells; test: Evans Blue dye edema after intradermal compound 48/80 in mice; assay type: in vivo, C57BL/6 mice; details: compound 48/80 challenge, 20 minutes
Protocol: Cohorts of 7-9-week-old female C57BL/6 mice were given 20 ul intradermal flank injections of 1600 nM SYM2081 or control PBS twice a day for 2 days. Evans Blue dye was introduced by intravenous injection to allow for quantification of edema followed by intradermal injection of control PBS or compound 48/80 (20 ul 10 ug/ml). The amount of Evans blue dye released into the skin which quantifies edema and is an indirect measure of mast cell degranulation was measured 20 minutes later (FIG. 2A). […] The percentage of degranulated mast cells was also quantified by direct microscopic visualization of skin samples stained with toluidine blue (FIG. 2B). […] Mice were then challenged by application of 0.5% croton oil, an irritant, on 1 ear and the degree of ear swelling which is reflective of the extent of irritant dermatitis was measured (FIG. 2D). […]
Cohorts of 7-9-week-old female C57BL/6 mice were treated with 5.0% SYM2081 formulated into a light base or vehicle alone on the flank twice daily for 2 days. Evans Blue dye was introduced by intravenous injection to allow for quantification of edema followed by intradermal injection of control PBS or compound 48/80 (20 ul 10 ug/ml). The amount of Evans blue dye released into the skin which quantifies edema and is an indirect measure of mast cell degranulation was measured 20 minutes later (FIG. 3A). […]

[2] = tested on: irritant dermatitis; test: Croton oil-induced irritant dermatitis, ear swelling; assay type: in vivo, C57BL/6 mice; details: intradermal SYM2081 for 2 days; 0.5% croton oil on 1 ear; FIG. 2D
Protocol: (§1) Cohorts of 7-9-week-old female C57BL/6 mice were given 20 ul intradermal flank injections of 1600 nM SYM2081 or control PBS twice a day for 2 days. Evans Blue dye was introduced by intravenous injection to allow for quantification of edema followed by intradermal injection of control PBS or compound 48/80 (20 ul 10 ug/ml). The amount of Evans blue dye released into the skin which quantifies edema and is an indirect measure of mast cell degranulation was measured 20 minutes later (FIG. 2A). […] The percentage of degranulated mast cells was also quantified by direct microscopic visualization of skin samples stained with toluidine blue (FIG. 2B). Whole human skin explants were cultured in control PBS or 1600 nM SYM2081 for 48 hours. Sample were exposed to compound 48/80 (240 ug/ml) for 20 minutes followed by direct microscopic visualization of skin samples stained with toluidine blue (FIG. 2C). […] Finally, C57BL/6 mice were treated with intradermal injection of control PBS or SYM2081 for 2 days as above. Mice were then challenged by application of 0.5% croton oil, an irritant, on 1 ear and the degree of ear swelling which is reflective of the extent of irritant dermatitis was measured (FIG. 2D). […] Each symbol represents data from an individual animal.

[3] = tested on: murine peritoneal mast cells; test: Mast cell degranulation by flow cytometry (surface Lamp1 and avidin binding) after compound 48/80; assay type: cell-based; details: for degranulation of PCMC in response to MrgprB2: in vitro, dose-dependent manner; for mast cell degranulation (mast cell activation): 48 hours incubation, compound 48/80 20 ug/ml 20 minutes, FIG. 1B
Protocol: Primary mast cell cultures derived from murine peritoneal mast cells were incubated for 48 hours with kainic acid (0.1, 1.0, 10 and 100 uM), glutamate (6 mM) or vehicle control. Cultures were then exposed to the synthetic MrgprB2 ligand, compound 48/80, at 20 ug/ml for 20 minutes. The extent of mast cell degranulation was determined based on surface expression of Lamp1 protein and avidin binding using flow cytometry gated on CD117+ FcεR+ mast cells. Representative flow plots from unstimulated cells (control) and cells stimulated with compound 48/80 are shown (FIG. 1A). […] A similar set of experiments were performed using mast cells incubated with the selective GluK2 agonist, SYM2081 at 1600 nM concentration (FIGS. 1C and 1D). […] Each symbol represents data from a single well of mast cells.

[4] = tested on: mast cells in whole human skin explants; test: Whole human skin explants, degranulated mast cells by toluidine blue after compound 48/80; assay type: cell-based; details: 1600 nM for 48 hours; compound 48/80 240 ug/ml 20 minutes; FIG. 2C
Protocol: as §1

[5] = tested on: contact hypersensitivity; test: DNFB contact hypersensitivity, ear thickness; assay type: in vivo, mice; details: topical SYM2081 on shaved abdomen twice daily for 2 days; 0.5% DNFB sensitization, 0.25% DNFB challenge; 7 days; FIG. 3B
[6] = tested on: murine peritoneal mast cells; test: β-hexosaminidase release from mast cells; assay type: cell-based; details: preincubated with SYM2081 at 100 nM and 1600 nM; FIG. 1F

Q: Which results are given for `C[C@H](C[C@H](N)C(=O)O)C(=O)O` [SYM2081, (2S,4R)-4-methylglutamic acid]?
A: edema (Evans blue dye released into the skin), indirect measure of mast cell degranulation ([1]; 20 ul intradermal 1600 nM SYM2081 twice a day for 2 days, FIG. 2A): effective to reduce mast cell degranulation; also recorded: suppressed; also recorded: significant reduction in edema; edema (Evans blue dye released into the skin), indirect measure of mast cell degranulation ([1]; topical 5.0% SYM2081 in a light base on flank twice daily for 2 days, FIG. 3A): effective to reduce mast cell degranulation; also recorded: significant reduction in edema; ear swelling (irritant dermatitis) [2]: attenuated; also recorded: reduced ear swelling; effective concentration (suppression of mast cells) ([3]; FIG. 1E): at least 0.1 nM; IC50 ([3]; Mus musculus, Mast cell, read-out: IC50 of suppression of mast cells (degranulation)): 2.27 nM; degranulation of PCMC in response to MrgprB2 [3]: suppressed; percentage of degranulated mast cells [4]: reduced percentage of degranulated mast cells; increased ear thickness (inflammation) in response to DNFB [5]: reduced inflammation; release of β-hexosaminidase [6]: decreased

Q: `N[C@@H](CCC(=O)O)C(=O)O` [glutamate] was tested. Which “mast cell degranulation (mast cell activation)” value ([3]; glutamate 6 mM) did it give?
A: suppress mast cell activation

Q: What about the “degranulation of PCMC in response to MrgprB2” value [3] of the same molecule?
A: suppressed

Q: For `C=C(C)[C@H]1CN[C@H](C(=O)O)[C@H]1CC(=O)O` [kainic acid], which “degranulation of PCMC in response to MrgprB2” value [3] is on record?
A: suppressed

Q: What about the “mast cell degranulation (mast cell activation)” value ([3]; kainic acid 0.1, 1.0, 10 and 100 uM) of the same molecule?
A: suppress mast cell activation
